Experimental data from patent US9416103B2, “Use of the aminoalkylindole JWH-073-M4 and related compounds as neutral CB1 receptor antagonists for the treatment of alcoholism, drug abuse, obesity, and obesity-related diseases” (The Board of Trustees of the University of Arkansas, priority 2012, dated 2016).
Several values for one entry are separate records, joined by “and”; a condition that tells them apart may be missing. Equal entries are not always repeated. Where two headings read alike, the source gives them in different places. Marks after values point to notes of the source that are not given here.

How the values were obtained:
[1] = molecular target: T1, CB1Rs (Mus musculus (Mouse), UniProt P47746); assay: [35S]GTPγS binding assay (G-protein activation) in mouse brain homogenates; format: biochemical; conditions: for [35S]GTPγS Binding, +O-2050 (1 μM): 1 μM cannabinoid (100 nM for CP-55,940) co-incubated with CB1R antagonist O-2050 1 μM; for [35S]GTPγS Binding, 10 μM: receptor-saturating concentration 10 μM
Procedure: (§1) Mouse brain homogenates for in vitro assays were prepared as previously described. Briefly, whole brains were harvested from B6SJL mice, snap-frozen in liquid nitrogen and stored at −80° C. On the day membrane homogenates were to be prepared, brains were thawed on ice, then pooled in a 40 mL Dounce glass homogenizer and suspended in 5 volumes of ice cold homogenization buffer (50 mM HEPES, pH 7.4, 3 mM MgCl2, and 1 mM EGTA). Brains were then subjected to 10 complete strokes with an A pestle, followed by centrifugation at 40,000×g for 10 minutes at +4° C. Resulting supernatants were discarded, and the pellet was resuspended, homogenized and centrifuged similarly twice more, with supernatants being discarded. For the final resuspension and homogenization with a B pestle, ice-cold 50 mM HEPES was used in place of homogenization buffer, and homogenates were aliquoted and stored at −80° C. Protein concentrations of homogenates were determined using the BCA™ Protein Assay (Thermo Scientific, Rockford, Ill.).
[^35S]GTPγS binding was performed as previously described. Briefly, 25 μg of mouse brain homogenates were incubated for 30 minutes at 30° C. with 0.1 nM [^35S]GTPγS, 10 μM GDP, and either cannabinoid+/−antagonist, 10 μM unlabeled GTPγS (non-specific binding) or vehicle (total binding), in triplicate, in a volume of 1 mL of buffer containing 20 mM HEPES, 10 mM MgCl2, 100 mM NaCl, 20 units/L adenosine deaminase, 0.05% BSA and the appropriate DMSO (0.1%) and/or ethanol (<0.2%) vehicle. Assay buffer containing 100 mM KCl, instead of 100 mM NaCl, was used to increase basal G-protein activity in experiments examining inverse agonism. Reactions were terminated by quick vacuum filtration through Whatman GF/B glass fiber filters, followed by five washes with ice-cold buffer (20 mM HEPES, 0.05% BSA). Filters were immediately placed into 7 mL scintillation vials to which 4 mL of ScintiVerse™ BD Cocktail scintillation fluid was added. Bound radioactivity was determined after overnight incubation at room temperature and shaking by liquid scintillation spectrophotometry with an efficiency of 93% (Tri Carb 2100 TR Liquid Scintillation Analyzer, Packard Instrument Company, Meriden, Conn.). Specific binding is expressed as picomoles of [^35S]GTPγS bound per mg of protein.
(§2) Curve fitting and statistical analyses for in vitro experiments were performed using GraphPad Prism™ version 5.0b (GraphPad Software Inc., San Diego, Calif.). The Cheng-Prusoff equation [45] was used to convert the experimental IC50 values obtained from competition receptor binding experiments to Ki values, a quantitative measure of receptor affinity. Non-linear regression for one-site competition was used to determine the IC50 for competition receptor binding. Curve fitting of concentration-effect curves via non-linear regression was also employed to determine the EC50 (a measure of potency) and Emax (a measure of efficacy) for [^35S]GTPγS concentration-effects experiments. […] Data are expressed as mean±SEM. The Student's t-test was used to determine statistical significance (P<0.05) between two groups, while a one-way ANOVA, followed by Tukey's Multiple Comparison post-hoc test, was used to determine statistical significance (P<0.05) between three or more groups.

[2] = molecular target: T1, CB1Rs; assay: Competition receptor binding with [3H]CP-55,940 in mouse brain homogenates
Procedure: as §1
(§3) Competition receptor binding was performed as previously described. […] Reactions were terminated by rapid vacuum filtration through Whatman GF/B glass fiber filters, followed by five washes with ice-cold buffer (50 mM Tris, 0.05% BSA). Filters were immediately placed into 7 mL scintillation vials to which 4 mL of ScintiVerse™ BD Cocktail scintillation fluid (Fisher Scientific, Fair Lawn, N.J.) was added. Bound radioactivity was determined after overnight incubation at room temperature and shaking, by liquid scintillation spectrophotometry with an efficiency of 44% (Tri Carb 2100 TR Liquid Scintillation Analyzer, Packard Instrument Company, Meriden, Conn.). Specific binding is expressed as total binding minus non-specific binding, and is graphed for each data point as a percentage of specific binding occurring in the absence of any competitor.
as §2
(§4) The prepared analogues were subjected to in vitro pharmacological testing, which included receptor binding and functional assays at both cannabinoid receptors. Initial receptor binding screens at both CB1Rs and CB2Rs were conducted for the analogues prepared.

[3] = molecular target: T2, hCB2Rs (Homo sapiens (Human), UniProt P34972); assay: Competition receptor binding with [3H]CP-55,940 in CHO-hCB2 cell homogenates; conditions: Table 3; read-out: hCB2R Ki
Procedure: as §3, §4

[4] = molecular target: CB1Rs endogenously expressed in Neuro2A cells (Mus musculus (Mouse), UniProt P47746); assay: Adenylyl cyclase (AC) inhibition via CB1Rs endogenously expressed in Neuro2A cells; format: cell-based
[5] = molecular target: T2, hCB2Rs; assay: Inhibition of forskolin-stimulated cAMP production (adenylyl cyclase) in intact CHO-hCB2R cells; format: cell-based; conditions: 10 μM, CHO cell transfected with hCB2 receptors; read-out: AC-inhibition at CB2Rs
Procedure: Adenylyl cyclases are a family of membrane-bound enzymes that catalyze the intracellular production of the second messenger cAMP from ATP. Adenylyl cyclase activity is modulated by activated G-proteins: Gs-proteins stimulate activity, while Gi/o-proteins are inhibitory. Thus, agonists of G-protein coupled receptors (GPCRs) coupled to Gi/o-proteins, such as hCB2Rs, decrease cAMP production due to inhibition of adenylyl cyclase activity. In this assay, intact CHO-hCB2R cells are preincubated with [^3H]-adenine and treated with forskolin (10 or 30 μM) to stimulate adenylyl cyclase activity.
A functional assay screen for the inhibition of adenylate cyclase (AC) activity was chosen as the subsequent assay. […] Reaching full-receptor occupancy, which is predicted to produce maximal efficacy, is desirable at 10 μM concentration of all the compounds was used.

[6] = tested on: NIH Swiss mice; assay: Core body temperature by biotelemetry (cannabinoid tetrad, hypothermia); format: in vivo, mouse; conditions: i.p.
Procedure: Prior to surgery (see below), male NIH Swiss mice (Harlan Sprague Dawley Inc., Indianapolis, Ind.), weighing approximately 25-30 g, were housed 3 animals per Plexiglas® cage (15.24×25.40×12.70 cm) in a temperature-controlled room in an Association for Assessment and Accreditation of Laboratory Animal Care (AAALAC) accredited animal facility at the University of Arkansas for Medical Sciences. Room conditions were maintained at 22±2° C. and 45-50% humidity. Lights were set to a 12-h light/dark cycle. Animals were fed Lab Diet rodent chow (Laboratory Rodent Diet #5001, PMI Feeds, Inc., St. Louis, Mo.) and water ad libitum throughout testing Animals were acclimated to the laboratory environment for ˜7 days prior to experiments, and to the biotelemetry chambers for at least 2 hours prior to initiation of data acquisition. All test conditions used groups of 5 or 6 mice, and all mice were drug-naïve (with the exception of surgical anesthetics) prior to testing.
Cannabinoid effects on core temperature and locomotor activity were measured using surgically-implanted biotelemetry probes. Following appropriate anesthetization with ketamine (100 mg/kg, intraperitoneal [i.p.]) and xylazine (10 mg/kg, i.p.), the abdominal area of each mouse was shaved and sanitized with iodine swabs. A rostral-caudal cut approximately 1.5 cm in length was made with skin scissors, providing access to the intraperitoneal cavity. A cylindrical glass-encapsulated radiotelemetry probe (model ER-4000 E-Mitter, Mini Mitter Co., Inc., Bend, Oreg.) was then inserted, and the incision was closed using absorbable 5-0 chromic gut suture material. At least 7 days were imposed between surgery and experimental observation of cannabinoid effects to allow incisions to heal and mice to recover normal body weights. Following surgery, implanted mice were individually housed in Plexiglas® mouse cages (15.24×25.40×12.70 cm) for the duration of all temperature and locomotor activity experiments Implanted transmitters produced activity- and temperature-modulated signals that were transmitted to a receiver (model ER-4000 Receiver, Mini Mitter Co., Inc., Bend, Oreg.) underneath each mouse cage. Receivers were housed in light- and sound-attenuating cubicles (Med Associates model ENV-022MD, St. Albans, Vt.) equipped with exhaust fans, which further masked ambient laboratory noise. On experimental days, mice were weighed, marked, and returned to their individual cages during which at least 1 hr of baseline data were collected. […]. Mice were then placed into a new cage with fresh bedding to stimulate exploratory behavior. Temperature and locomotor activity data were collected at regular 5-min intervals and processed simultaneously by the Vital View data acquisition system (Mini Mitter Co., Inc., Bend, Oreg.) for at least 10 hrs.
For core body temperature experiments, the area under the curve (AUC) was calculated using a trapezoidal rule from 0-500 minutes, and statistical significance (P<0.05) was determined using a one-way ANOVA, followed by Tukey's HSD post-hoc test. For locomotor activity, total locomotor counts were summed from 0-800 minutes. Because locomotor, analgesia and catalepsy data were not normally distributed, Kruskal-Wallis one-way ANOVA on ranks were performed, and all pair-wise comparisons were then made using the Tukey's HSD tests. In vivo statistical calculations were performed using SigmaStat 3 (Systat Software, Inc., San Jose, Calif.).

[7] = tested on: NIH Swiss mice; assay: Locomotor activity by biotelemetry (cannabinoid tetrad); format: in vivo, mouse; conditions: 10 mg/kg, i.p.
[8] = mouse brain homogenates, 0.2 nM [3H]CP-55,940, read-out: [3H]CP binding Ki

Work on `COc1cccc2c(C(=O)c3cccc4ccccc34)cn(CCN3CCOCC3)c12` yielded a melting point of 149 to 152 °C.
For `O=C(c1cccc2ccccc12)c1cn(CCCCO)c2ccccc12` [Compound M5], the “[35S]GTPγS Binding, 1 μM” value [1] was 0.12 ± 0.00 pmol/mg, the “[35S]GTPγS Binding, +O-2050 (1 μM)” value [1] was 0.05 ± 0.01 pmol/mg and the “[35S]GTPγS Binding, 10 μM” value [1] was 0.16±0.02 pmole/mg and 0.16 ± 0.02^a pmole/mg. The Ki [2, 8] was 224 ± 9 nM.
With `CCCCn1cc(C(=O)Cc2ccccc2)c2cccc(OC)c21` the melting point was 65 to 68 °C.
Compound `CCCCn1cc(C(=O)Cc2ccc(F)cc2)c2cccc(OC)c21` [TV-5-129, 1-(1-butyl-7-methoxy-1H-indol-3-yl)-2-(4-fluorophenyl)ethanone] has a Ki ([2]; Table 3, read-out: mCB1R Ki) of 387 ± 77 nM, a Ki [3] of 281 nM and an inhibition at 10 µM ([4]; N2a, 10 μM, Neuro2A cells) of -4%. It also gave an inhibition at 10 µM [5] of 22.1%.
For `CC1=CC[C@@H]2[C@@H](C1)c1c(O)cc(CC#CCCCNS(C)(=O)=O)cc1OC2(C)C` [Compound O-2050, reference compound], the “antagonism of AC-inhibition produced by the CB1R full agonist JWH-073” value ([4]; 1 μM concentration) was “antagonized AC-inhibition”.
With `CCCCCn1cc(C(=O)c2cccc3ccccc23)c2ccccc21` [JWH-018] the EC50 ([1]; JWH-018 alone, read-out: EC50 of JWH-018 for G-protein activation, alone) was 8 nM, the EC50 ([1]; read-out: EC50 of JWH-018 in the presence of M4, + M4 1 μM) was 178 nM and the EC50 ([1]; read-out: EC50 of JWH-018 in the presence of M4, + M4 3 μM) was 263 nM. The EC50 ([1]; read-out: EC50 of JWH-018 in the presence of M4, + M4 10 μM) was 1560 nM and the “maximal decrease in core body temperature to” value ([6]; JWH-018 3 mg/kg, alone) was 30.28+/−0.71 °C.
For `CCCCn1cc(C(=O)c2cccc3ccccc23)c2c(O)cccc21` [Compound M1], the “[35S]GTPγS Binding, 1 μM” value [1] was 0.17 ± 0.01 pmol/mg, the “[35S]GTPγS Binding, +O-2050 (1 μM)” value [1] was 0.07 ± 0.01 pmol/mg and the “[35S]GTPγS Binding Emax” value ([1]; concentration-effect, mouse brain homogenates) was 0.14 ± 0.01^b pmole/mg. For the same compound, the EC50 ([1]; concentration-effect, mouse brain homogenates, read-out: [35S]GTPγS Binding EC50) was 113 ± 29.2 nM, the “[35S]GTPγS Binding, 10 μM” value [1] was 0.14±0.01 pmole/mg and 0.14 ± 0.01^a pmole/mg and the locomotor activity [7] was “reduction of locomotor activity similar to that observed with administration of JWH-073”. The “minimum core body temperature recorded” value ([6]; 10 mg/kg) was 30.32±0.66 °C, the “time to maximal core body temperature reduction” value ([6]; 10 mg/kg) was 58.00 ± 4.64 min and the Ki [2, 8] was 14.1 ± 3.5 nM.
For `CCCCn1cc(C(=O)Cc2ccccc2F)c2cccc(OC)c21`, the melting point was 86 to 88 °C.
`CCCCn1cc(C(=O)Cc2cccc3ccccc23)c2cccc(OC)c21` gave a melting point of 110 to 113 °C.
`CCCCn1cc(C(=O)Cc2ccc(OC)cc2)c2cccc(OC)c21` showed a melting point of 72 to 74 °C.
With `O=C(O)CCCn1cc(C(=O)c2cccc3ccccc23)c2ccccc21` [Compound M6, 4-(3-(1-naphthoyl)-1H-indole-1-yl)-1-butanoic acid, reference compound] the “displacement of [3H]CP-55,940 specific binding” value ([2]; concentrations as high as 10 μM) was “less than 10%”.
In the case of `CCCCn1cc(C(=O)c2cccc3ccccc23)c2ccc(O)cc21` [Compound M3], the “[35S]GTPγS Binding, 1 μM” value [1] is reported as 0.04 ± 0.00 pmol/mg, the “[35S]GTPγS Binding, +O-2050 (1 μM)” value [1] is reported as 0.02 ± 0.01 pmol/mg and the “[35S]GTPγS Binding, 10 μM” value [1] is reported as 0.11±0.02 pmole/mg and 0.11 ± 0.02^a,b pmole/mg. It also gave a Ki ([2]; mouse brain homogenates, 0.2 nM [3H]CP-55,940, read-out: CB1R affinity (Ki)) of 1280 ± 470 nM.
In the case of `CCCCn1cc(-c2cccc3ccccc23)c2cccc(OC)c21`, the melting point is reported as 74 to 76 °C.
